Experimental data taken from patent US5324648A, “Substituted isocoumarins as serine protease inhibitors and anti-inflammatory agents” (Georgia Tech Research Corporation, priority 1992, dated 1994).
Like-named read-outs stand apart in the source and are kept apart here.

Legend:
[1] = target: T1, chymotrypsin (Bos taurus, UniProt P00766); assay: Reactivation of inhibited chymotrypsin; format: biochemical, bovine
Protocol: (§1) ^a Inhibition was performed at 0.1M Hepes, 0.5M NaCl, pH 7.5 buffer,
(§2) 10% Me2 SO and 25° C. Reactivation was carried out in the
presence of 0.36M of NH2 OH, and occurred immediately after the
^b Enzyme activity was measured after two days.

[2] = target: T2, cathepsin G (Homo sapiens, UniProt P08311); assay: Inactivation of cathepsin G; format: biochemical
T2 construct: from tissue; host or cells: human leukocytes
T2 sequence (P08311 21-255): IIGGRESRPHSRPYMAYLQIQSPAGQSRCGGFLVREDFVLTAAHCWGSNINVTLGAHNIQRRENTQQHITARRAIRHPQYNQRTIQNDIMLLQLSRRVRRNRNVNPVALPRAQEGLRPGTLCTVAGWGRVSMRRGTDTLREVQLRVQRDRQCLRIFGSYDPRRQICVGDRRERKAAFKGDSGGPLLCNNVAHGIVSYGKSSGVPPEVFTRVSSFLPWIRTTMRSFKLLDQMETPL
Protocol: (§9) Inactivation rates of serine proteases by substituted isocoumarins were measured by the incubation method. An aliquot of inhibitor (25 or 50 μl) in Me2 SO was added to a buffered enzyme solution (0.01-2.3 μM) to initiate the inactivation. Aliquots (50 μl) were withdrawn at various intervals and the residual enzymatic activity was measured. Me2 SO concentration in the reaction mixture was 8-12% (v/v). 0.1 Hepes, 0.01M CaCl2, pH 7.5 buffer was utilized for trypsin and coagulation enzymes. 0.1M Hepes, 0.5M NaCl, pH 7.5 was utilized for other serine proteases. […] Peptide thioesters or peptide nitroanilides with appropriate sequence were used as substrates for various serine proteases. All peptide thioester hydrolysis rates were measured with assay mixtures containing 4,4'-dithiodipyridine (ε324 =19800M^-1 cm^-1 ; Grasetti & Murray, Arch. Biochem. Biophys. 119, pp 41-49 (1967)). Peptide 4-nitroanilide nitroanilide hydrolysis was measured at 410 nm (ε410 =8800M^-1 cm^-1 ; Erlanger et al., Arch. Biochem. Biophys. 95, pp 271-278 (1961)). First order inactivation rate constant (kobs) were obtained from plots of ln (vt /vo) vs time, and the correlation coefficients were greater than 0.98.
(§10) ^a Inactivation rates were measured at 0.1M Hepes, 0.5 NaCl, pH 7.5,
(§11) 8-12% Me2 SO and 25° C. by incubation method.
and assayed for remaining activity.
(§12) ^a Inhibition rates were measured in 0.1M Hepes, 0.05M NaCl, pH 7.5
buffer, 8-9% Me2 SO and at 25° C.
Me2 SO, pH 7,5 and at 25° C.
(§13) ^a Inhibition was measured in 0.1M Hepes, 0.5M NaCl, pH 7.5 buffer,
(§14) 5-10% Me2 SO and at 25° C. Suc--Val--Pro--Phe--NA (0.48 mM)
(§15) was used as the substrate for chymotrypsin and cat G.

[3] = tested on: rat granule chymase; assay: Reactivation of inhibited rat granule chymase; format: biochemical; settings: [I] 39 μM; +NH2OH 0.36M
Protocol: as §1, §2
presence of 0.36M of NH2 OH, and occurred immediately after the […]

[4] = tested on: rat granule chymase; assay: Inhibition of rat granule chymase; format: biochemical; settings: Table XIV, not time dependent
Protocol: (§3) ^a Inhibition was measured at 0.1M Hepes, 0.5M NaCl, pH 7.5 buffer,
(§4) 10% Me2 SO and 25° C. Suc--Phe--Leu--PheSBzl (0.14 mM) and
(§5) ZGly--ArgSBzl (0.06 mM) were used to measure chymase and tryptase activit

[5] = target: T1, chymotrypsin; assay: Inactivation of chymotrypsin; format: biochemical, bovine; settings: pH 7.5, 25° C, read-out: kobs/[I]
[6] = target: rat granule tryptase; assay: Inhibition of rat granule tryptase; format: biochemical; settings: Table XIV
Protocol: as §3, §4, §5

[7] = tested on: human skin tryptase; assay: Inhibition of human skin tryptase; format: biochemical; settings: Table IX
Protocol: (§6) Inactivation rates of serine proteases by substituted isocoumarins were measured by the incubation method. An aliquot of inhibitor (25 or 50 μl) in Me2 SO was added to a buffered enzyme solution (0.01-2.3 μM) to initiate the inactivation. Aliquots (50 μl) were withdrawn at various intervals and the residual enzymatic activity was measured. Me2 SO concentration in the reaction mixture was 8-12% (v/v). 0.1 Hepes, 0.01M CaCl2, pH 7.5 buffer was utilized for trypsin and coagulation enzymes. 0.1M Hepes, 0.5M NaCl, pH 7.5 was utilized for other serine proteases. The inhibitor concentrations are shown in all the tables. Peptide thioesters or peptide nitroanilides with appropriate sequence were used as substrates for various serine proteases. All peptide thioester hydrolysis rates were measured with assay mixtures containing 4,4'-dithiodipyridine (ε324 =19800M^-1 cm^-1; Grasetti & Murray, Arch. Biochem. Biophys. 119, pp 41-49 (1967)). Peptide 4-nitroanilide nitroanilide hydrolysis was measured at 410 nm (ε410 =8800M^-1 cm^-1; Erlanger et al., Arch. Biochem. Biophys. 95, pp 271-278 (1961)). First order inactivation rate constant (kobs) were obtained from plots of ln (vt /vo) vs time, and the correlation coefficients were greater than 0.98.
(§7) ^a Inhibition rates were measured in 0.1M Hepes, 0.01M CaCl2, pH
7.5 buffer for human plasmin; 25 mM Phosphate, 0.5M NaCl, 1 mM EDTA, pH
7.5 buffer for rat skin tryptase and 0.1M Hepes, 0.5M NaCl, pH 7.5 for
human lung tryptase, human skin tryptase and rt-PA. All enzymes were
assayed with ZArg-SBzl (0.07 mM) in the presence of 4,4dithiodipyridine
(0.33 mM). Reaction mixtures contained 8% Me2 SO and assays were […]

[8] = target: T3, bovine thrombin (Bos taurus, UniProt P00735); assay: Inactivation rate of bovine thrombin; format: biochemical; settings: Table VIII; pH 7.5, 25° C; [I] 1.2-54 μM; read-out: kobs/[I]
T3 construct: bovine thrombin
Outline: (§8)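 Incubation method: isocoumarin inhibitor in Me2SO added to enzyme (0.01-2.3 μM) in 0.1M Hepes, 0.01M CaCl2, pH 7.5, 8-12% Me2SO, 25° C; aliquots withdrawn over time for residual activity against peptide thioester or 4-nitroanilide substrates. kobs from ln(vt/vo) vs time.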

[9] = target: T4, human plasmin (Homo sapiens, UniProt P00747); assay: Inactivation rate of human plasmin; format: biochemical; settings: Table IX; 0.01M CaCl2, pH 7.5, 25° C; [I] 8.3-41 μM; read-out: kobs/[I]
T4 construct: human plasmin; from tissue; host or cells: human plasma

[10] = target: T5, human leukocyte elastase (HLE) (Homo sapiens, UniProt P08246); assay: Inactivation of human leukocyte elastase (HLE); format: biochemical; settings: Table X; pH 7.5, 25° C; [I] 2.1-42 μM; read-out: kobs/[I]
T5 construct: from tissue; host or cells: human leukocytes (from the name)
T5 sequence (P08246 30-267): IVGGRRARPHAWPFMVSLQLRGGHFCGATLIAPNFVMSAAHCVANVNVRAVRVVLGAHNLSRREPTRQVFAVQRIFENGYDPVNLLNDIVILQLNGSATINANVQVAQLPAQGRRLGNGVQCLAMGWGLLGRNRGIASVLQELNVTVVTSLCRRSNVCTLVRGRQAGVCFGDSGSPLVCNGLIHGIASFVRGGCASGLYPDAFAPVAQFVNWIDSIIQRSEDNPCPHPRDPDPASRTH
Protocol: as §9, §10, §11, §12
buffer, 8-9% Me2 SO and at 25° C.
(§16) ^a Inhibition constants were in 0.1M Hepes, 0.5M NaCl, pH 7.5 buffer,
8-9% Me2 SO and at 25° C.
(§17) ^a Inhibition rates were measured in 0.1M Hepes, 0.5M NaCl, 2.5%
Me2 SO, pH 7,5 and at 25° C.
as §13, §14, §15
(§18) ^a Inhibition rates were measured in 0.1M Hepes, 0.5M NaCl, pH 7.5

[11] = target: human lung tryptase; assay: Inactivation rate of human lung tryptase; format: biochemical; settings: Table IX; pH 7.5, 25° C; [I] 0.42-0.47 μM
Outline: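 Incubation method in 0.1M Hepes, 0.5M NaCl, pH 7.5, 8% Me2SO, 25° C; inhibitor added to enzyme, aliquots withdrawn over time for residual activity. Substrate ZArg-SBzl (0.07 mM) with 4,4'-dithiodipyridine (0.33 mM). kobs from ln(vt/vo) vs time plots.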

[12] = Spontaneous hydrolysis in Hepes buffer; format: physicochemical; settings: 0.1 Hepes, 0.5M NaCl, pH 7.5, 9% Me2SO, 25° C
Protocol: ^a Conditions were 0.1 Hepes, 0.5M NaCl, pH 7.5 and 9% Me2 SO at
25° C. Spontaneous hydrolysis rates were measured
spectrophotometrically by monitoring the decrease in absorbance due to th
isocoumarin ring system (wavelength 335-380 nm) using the firstorder rate

[13] = target: recombinant human tissue plasminogen activator (Homo sapiens, UniProt P00750); assay: Inactivation rate of recombinant human tissue plasminogen activator; format: biochemical; settings: pH 7.5, Table IX; pH 7.5, 25° C; [I] 3.5-5.0 μM; read-out: kobs/[I]
Outline: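 Incubation method: enzyme mixed with inhibitor in Me2SO (8–12% v/v) in 0.1M Hepes, 0.5M NaCl, pH 7.5; aliquots withdrawn over time for residual activity with ZArg-SBzl (0.07 mM) plus 4,4'-dithiodipyridine (0.33 mM). kobs taken from ln(vt/vo) versus time plots.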

[14] = target: T6, porcine pancreatic elastase (PPE) (Sus scrofa, UniProt P00772); assay: Inactivation of porcine pancreatic elastase (PPE); format: biochemical; settings: Table X; after 20 min incubation
T6 construct: from tissue; host or cells: porcine pancreas (from the name)
Protocol: as §9, §10, §11, §12
buffer, 8-9% Me2 SO and at 25° C.
as §16
8-9% Me2 SO and at 25° C.
as §17
Me2 SO, pH 7,5 and at 25° C.
as §13, §14, §15, §18

[15] = target: T7, bovine trypsin (Bos taurus, UniProt P00760); assay: Inactivation rate of bovine trypsin; format: biochemical; settings: Table VIII; pH 7.5, 25° C; [I] 1.1-4.6 μM; read-out: kobs/[I]
T7 sequence (P00760 24-246): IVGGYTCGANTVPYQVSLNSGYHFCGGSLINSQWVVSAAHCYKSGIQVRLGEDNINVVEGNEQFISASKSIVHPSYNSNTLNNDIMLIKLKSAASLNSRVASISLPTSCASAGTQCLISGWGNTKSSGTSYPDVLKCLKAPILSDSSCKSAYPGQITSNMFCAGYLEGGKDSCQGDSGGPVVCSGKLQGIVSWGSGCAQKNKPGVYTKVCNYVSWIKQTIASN
Outline: as §8

[16] = target: T8, human thrombin (Homo sapiens, UniProt P00734); assay: Inactivation rate of human thrombin; format: biochemical; settings: Table VIII; pH 7.5, 25° C; [I] 1.2-54 μM; read-out: kobs/[I]
T8 construct: human thrombin
Outline: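 Incubation method: enzyme (0.01-2.3 μM) mixed with inhibitor in 0.1M Hepes, 0.01M CaCl2, pH 7.5, 8% Me2SO, 25° C; residual activity sampled over time with peptide thioester or 4-nitroanilide substrates. kobs from ln(vt/vo) vs time plots.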

[17] = target: T9, rat skin tryptase (Rattus norvegicus, UniProt P27435); assay: Inactivation rate of rat skin tryptase; format: biochemical; settings: pH 7.5, Table IX; pH 7.5, 25° C; [I] 0.42-0.51 μM; read-out: kobs/[I]
T9 construct: from tissue; host or cells: rat skin
Outline: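 Rat skin tryptase incubated with isocoumarin inhibitor in 25 mM phosphate, 0.5 M NaCl, 1 mM EDTA, pH 7.5, 8-9% Me2SO, 25 °C; aliquots withdrawn over time for residual activity on ZArg-SBzl (0.07 mM) with 4,4'-dithiodipyridine (0.33 mM). First-order kobs from ln(vt/vo) versus time.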

[18] = target: T10, human factor Xa (Homo sapiens, UniProt P00742); assay: Inactivation rate of human factor Xa; format: biochemical; settings: Table VIII; pH 7.5, 25° C; [I] 3.6-44 μM; read-out: kobs/[I]
T10 construct: human factor Xa
Protocol: as §6
^a Conditions were as 0.1M Hepes, 0.01M CaCl2, pH 7.5 and 8-12%
Me2 SO and 25° C. Rate constants were measured by incubation
method unless otherwise noted. An aliquot of inhibitor was added to an
enzyme solution and aliquots removed with time and assayed for remaining
enzymatic activity. Firstorder rate constants, kobs were obtained
from the plots of ln(vt /vo) versus time.
as §7
7.5 buffer, 8% Me2 SO and at 25° C.

[19] = target: T11, human factor XIIa (Homo sapiens, UniProt P00748); assay: Inactivation rate of human factor XIIa; format: biochemical; settings: Table VIII; pH 7.5, 25° C; [I] 3.6-4.9 μM; read-out: kobs/[I]
T11 construct: human factor XIIa
T11 sequence (P00748 373-615 limits assumed): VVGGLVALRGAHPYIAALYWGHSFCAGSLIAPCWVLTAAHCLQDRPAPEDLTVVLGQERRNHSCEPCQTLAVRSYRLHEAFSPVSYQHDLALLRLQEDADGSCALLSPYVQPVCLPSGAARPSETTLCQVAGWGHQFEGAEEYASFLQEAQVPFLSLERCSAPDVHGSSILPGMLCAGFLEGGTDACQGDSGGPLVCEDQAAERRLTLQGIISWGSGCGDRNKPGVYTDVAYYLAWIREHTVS
T11 sequence (P00748 20-372 partner limits assumed): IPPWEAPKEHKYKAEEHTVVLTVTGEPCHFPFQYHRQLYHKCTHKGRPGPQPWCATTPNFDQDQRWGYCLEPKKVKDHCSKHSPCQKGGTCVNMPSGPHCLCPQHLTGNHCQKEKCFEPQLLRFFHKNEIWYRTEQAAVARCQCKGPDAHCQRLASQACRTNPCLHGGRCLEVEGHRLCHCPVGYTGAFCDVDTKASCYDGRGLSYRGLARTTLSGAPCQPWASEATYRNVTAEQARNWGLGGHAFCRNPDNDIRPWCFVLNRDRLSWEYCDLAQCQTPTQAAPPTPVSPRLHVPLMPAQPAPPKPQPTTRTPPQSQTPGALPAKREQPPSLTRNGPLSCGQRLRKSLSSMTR
Outline: as §8

[20] = [I] 39 μM, in buffer, after two days
[21] = [I] 78 μM, in buffer, after two days

T9 sequence (P27435 29-273): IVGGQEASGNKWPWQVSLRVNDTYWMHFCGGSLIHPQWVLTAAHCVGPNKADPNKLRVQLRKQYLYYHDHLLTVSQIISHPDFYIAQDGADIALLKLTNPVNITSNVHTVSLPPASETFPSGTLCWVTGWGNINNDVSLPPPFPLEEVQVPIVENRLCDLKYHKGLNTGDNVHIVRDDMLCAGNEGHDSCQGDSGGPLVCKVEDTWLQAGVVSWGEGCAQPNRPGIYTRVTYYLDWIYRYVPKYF
recombinant human tissue plasminogen activator, sequence (P00750 36-562): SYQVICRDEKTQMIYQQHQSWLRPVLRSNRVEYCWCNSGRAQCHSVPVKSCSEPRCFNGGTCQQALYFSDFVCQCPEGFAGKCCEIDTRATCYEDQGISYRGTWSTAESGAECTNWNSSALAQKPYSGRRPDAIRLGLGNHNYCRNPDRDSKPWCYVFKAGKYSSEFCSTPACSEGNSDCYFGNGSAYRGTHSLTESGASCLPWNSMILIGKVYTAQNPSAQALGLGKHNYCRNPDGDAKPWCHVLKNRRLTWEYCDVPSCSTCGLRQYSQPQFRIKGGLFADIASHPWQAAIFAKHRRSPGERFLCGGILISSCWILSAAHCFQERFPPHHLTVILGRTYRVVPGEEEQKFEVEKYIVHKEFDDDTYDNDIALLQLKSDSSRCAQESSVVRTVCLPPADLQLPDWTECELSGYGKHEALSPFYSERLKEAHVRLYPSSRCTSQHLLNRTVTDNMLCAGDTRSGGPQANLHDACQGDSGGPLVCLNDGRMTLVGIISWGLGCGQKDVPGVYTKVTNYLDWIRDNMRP
T4 sequence (P00747 581-810 limits assumed): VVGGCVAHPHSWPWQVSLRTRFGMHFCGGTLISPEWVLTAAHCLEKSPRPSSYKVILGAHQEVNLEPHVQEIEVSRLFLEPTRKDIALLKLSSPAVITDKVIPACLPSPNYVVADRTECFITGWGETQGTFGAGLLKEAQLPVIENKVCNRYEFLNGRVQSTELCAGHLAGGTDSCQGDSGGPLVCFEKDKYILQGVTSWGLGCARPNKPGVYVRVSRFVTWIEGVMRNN
T4 sequence (P00747 97-580 partner limits assumed): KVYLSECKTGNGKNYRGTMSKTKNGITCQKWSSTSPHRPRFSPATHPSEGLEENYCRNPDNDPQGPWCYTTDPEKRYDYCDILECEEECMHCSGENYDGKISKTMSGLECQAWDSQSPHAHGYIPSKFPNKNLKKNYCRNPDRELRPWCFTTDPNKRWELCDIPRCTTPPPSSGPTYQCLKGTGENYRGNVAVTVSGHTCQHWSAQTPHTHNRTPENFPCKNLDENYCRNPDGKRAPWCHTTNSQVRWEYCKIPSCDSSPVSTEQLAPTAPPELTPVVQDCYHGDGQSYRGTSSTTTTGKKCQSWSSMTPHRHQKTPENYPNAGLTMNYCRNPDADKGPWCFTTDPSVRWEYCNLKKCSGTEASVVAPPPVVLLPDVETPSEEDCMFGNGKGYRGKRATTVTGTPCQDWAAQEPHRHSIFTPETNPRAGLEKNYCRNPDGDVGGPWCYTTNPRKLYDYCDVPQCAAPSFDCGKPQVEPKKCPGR
T10 sequence (P00742 235-488 limits assumed): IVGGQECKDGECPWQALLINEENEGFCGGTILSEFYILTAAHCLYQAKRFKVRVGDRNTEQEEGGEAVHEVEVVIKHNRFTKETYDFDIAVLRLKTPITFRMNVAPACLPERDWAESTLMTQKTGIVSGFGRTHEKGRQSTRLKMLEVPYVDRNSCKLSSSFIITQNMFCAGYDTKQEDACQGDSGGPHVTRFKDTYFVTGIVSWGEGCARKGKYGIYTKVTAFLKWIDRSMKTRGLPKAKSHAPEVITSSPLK
T10 sequence (P00742 41-179 partner limits assumed): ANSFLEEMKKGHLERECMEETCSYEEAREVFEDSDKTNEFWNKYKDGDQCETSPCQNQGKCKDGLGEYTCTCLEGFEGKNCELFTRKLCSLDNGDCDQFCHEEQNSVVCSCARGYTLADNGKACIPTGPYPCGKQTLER
T6 sequence (P00772 27-266): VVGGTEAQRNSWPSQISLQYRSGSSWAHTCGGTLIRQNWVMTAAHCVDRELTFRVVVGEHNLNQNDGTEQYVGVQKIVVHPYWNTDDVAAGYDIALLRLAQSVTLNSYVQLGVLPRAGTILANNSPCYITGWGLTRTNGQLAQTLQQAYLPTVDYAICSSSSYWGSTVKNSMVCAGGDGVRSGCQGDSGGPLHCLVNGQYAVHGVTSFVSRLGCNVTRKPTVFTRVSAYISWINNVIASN

% of Enzyme Activity Reactivated ([1]; [I] 39 μM, +NH2OH 0.36M) [%] | % of Enzyme Activity Reactivated [1, 20] [%] | % of Enzyme Activity Reactivated ([1]; [I] 78 μM, +NH2OH 0.36M) [%] | % of Enzyme Activity Reactivated [1, 21] [%] | % of Enzyme Activity Reactivated [3] | kinact/KI [8] [M⁻¹ s⁻¹] | kobs/[I] [11] | t1/2 for spontaneous hydrolysis [12] [h] | kinact/KI [13] [M⁻¹ s⁻¹] | kinact/KI [15] [M⁻¹ s⁻¹] | kinact/KI [16] [M⁻¹ s⁻¹] | kinact/KI [17] [M⁻¹ s⁻¹] | SMILES | other results
50 | 6 | 40 | 0 | 30-50% |  |  |  |  |  |  |  | O=C(CCCC[C@@H]1SC[C@@H]2NC(=O)N[C@@H]21)NCCCCCC(=O)Nc1ccc2c(Cl)c(OCCc3ccccc3)oc(=O)c2c1 [7-(6-biotinylaminocaproyl)amino-4-chloro-3-(2-phenylethoxy)isocoumarin] | inhibition ([2]; Table XIII, [I] 75-400 μM): 13%; % of inhibition ([4]; [I] 0.078 mM): 30-50%; kinact/KI ([5]; Table XIII, [I] 20-400 μM): 1080 M⁻¹ s⁻¹; kobs/[I] ([6]; [I] 0.078 mM): 6 to 12 M⁻¹ s⁻¹
85 | 51 | 79 | 7 | 100% |  |  |  |  |  |  |  | O=C(CCCC[C@@H]1SC[C@@H]2NC(=O)N[C@@H]21)Nc1ccc2c(Cl)c(OCCc3ccccc3)oc(=O)c2c1 [7-biotinylamino-4-chloro-3-(2-phenylethoxy)isocoumarin] | % of inhibition ([4]; [I] 0.2 mM): 10-20%; kobs/[I] ([6]; [I] 0.2 mM): 2 to 3 M⁻¹ s⁻¹
 |  |  |  |  | 420 | 190,000 M^-1 s^-1 | 2.47 | 18000 | 51000 | 700 | 270000 | N=C(N)SCCCOc1oc(=O)c2cc(NC(=O)NCc3ccccc3)ccc2c1Cl [PhCH2 NHCONH-CiTPrOIC, 7-(benzylcarbamoylamino)-4-chloro-3-(3-isothiureidopropoxy)isocoumarin] | percentage of inhibition ([7]; not time dependent, at 0.34-5.0 μM): 68%; kinact/KI [9]: 5120 M⁻¹ s⁻¹; kinact/KI [10]: 250 M⁻¹ s⁻¹; kinact/KI ([2]; Table X, pH 7.5, 25° C, [I] 33-46 μM, read-out: kobs/[I]): 50 M⁻¹ s⁻¹; percentage of inhibition [14]: 9%; kinact/KI ([5]; Table X, [I] 0.9-43 μM): 13400 M⁻¹ s⁻¹
 |  |  |  |  | 970 | 140,000 M^-1 s^-1 | 2.47 | 19000 | 63000 | 1840 | 250000 | N=C(N)SCCCOc1oc(=O)c2cc(NC(=O)Nc3ccccc3)ccc2c1Cl [PhNHCONH-CiTPrOIC, 7-(phenylcarbamoylamino)-4-chloro-3-(3-isothiureidopropoxy)isocoumarin] | kinact/KI [18]: 50 M⁻¹ s⁻¹; kobs/[I] ([7]; pH 7.5, 25° C, [I] 0.34-0.39 μM): 38,000 M^-1 s^-1; kinact/KI [19]: 7720 M⁻¹ s⁻¹
